Data reported in ChEMBL document CHEMBL2074300, “Induction profile of rat organic anion transporting polypeptide 2 (oatp2) by prototypical drug-metabolizing enzyme inducers that activate gene expression through ligand-activated transcription factor pathways” (J Pharmacol Exp Ther, 2002).

Key:
[1] = target: T1, Solute carrier organic anion transporter family member 1A4 (Rattus norvegicus, UniProt O35913); assay: TP_TRANSPORTER: Western in vivo SD rat, liver; type: functional, organism-based, Sprague-Dawley
T1 sequence (O35913 whole entry): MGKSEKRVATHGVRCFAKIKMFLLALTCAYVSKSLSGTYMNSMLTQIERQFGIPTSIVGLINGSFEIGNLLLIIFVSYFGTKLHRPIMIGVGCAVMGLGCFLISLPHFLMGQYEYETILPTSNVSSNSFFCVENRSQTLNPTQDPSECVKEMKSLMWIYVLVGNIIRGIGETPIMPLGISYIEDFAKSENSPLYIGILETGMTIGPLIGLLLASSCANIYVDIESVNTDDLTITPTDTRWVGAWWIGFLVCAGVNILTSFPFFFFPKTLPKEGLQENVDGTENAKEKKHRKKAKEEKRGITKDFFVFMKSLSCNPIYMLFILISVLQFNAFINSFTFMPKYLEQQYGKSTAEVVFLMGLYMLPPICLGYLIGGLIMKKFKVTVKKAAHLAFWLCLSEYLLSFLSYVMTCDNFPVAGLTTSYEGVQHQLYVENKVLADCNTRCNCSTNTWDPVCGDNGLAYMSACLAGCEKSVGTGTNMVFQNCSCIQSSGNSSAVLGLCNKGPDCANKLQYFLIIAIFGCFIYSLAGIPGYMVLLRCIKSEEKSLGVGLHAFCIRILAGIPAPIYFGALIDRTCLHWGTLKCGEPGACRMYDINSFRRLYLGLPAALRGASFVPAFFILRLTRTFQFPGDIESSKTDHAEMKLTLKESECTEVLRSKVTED

[2] = target: T1, Solute carrier organic anion transporter family member 1A4; assay: TP_TRANSPORTER: Northern blot in vivo SD rat, liver; type: functional, organism-based, Sprague-Dawley

Compound | Activity [1] | Activity [2]
Clc1cc2c(cc1Cl)Oc1cc(Cl)c(Cl)cc1O2 [2,3,7,8-TETRACHLORODIBENZO-P-DIOXIN] | inducer [Decrease] | –
O=c1cc(-c2ccccc2)oc2ccc3ccccc3c12 [BETA-NAPHTHOFLAVONE] | inducer [Decrease] | –
CCCC[C@@H](CC)COC(=O)c1ccccc1C(=O)OC[C@@H](CC)CCCC [BIS(2-ETHYLHEXYL)PHTHALATE] | inducer [+] | –
C[C@@H]1C[C@H]2[C@@H]3CCC4=CC(=O)C=C[C@]4(C)[C@@]3(F)[C@@H](O)C[C@]2(C)[C@@]1(O)C(=O)CO [DEXAMETHASONE] | inducer [+] | –
C=CCSCC=C [DIALLYL SULFIDE] | inducer [+] | inducer [+]
OCc1c[nH]c2ccccc12 [INDOLE-3-CARBINOL] | inducer [Decrease] | inducer [+]
CCC1(c2ccccc2)C(=O)NC(=O)NC1=O [PHENOBARBITAL] | inducer [+] | –
Clc1ccc(-c2cc(Cl)c(Cl)cc2Cl)c(Cl)c1 [POLYCHLORINATED BIPHENYL 99] | inducer [+] | –
Clc1ccc(-c2cc(Cl)c(Cl)c(Cl)c2)cc1Cl [POLYCHLORINATED BIPHENYL 126] | inducer [Decrease] | –
CC(=O)[C@H]1[C@H](C#N)C[C@H]2[C@@H]3CC=C4C[C@@H](O)CC[C@]4(C)[C@H]3CC[C@@]21C [PREGNENOLONE CARBONITRILE] | inducer [+] | inducer [+]
CC(=O)S[C@@H]1CC2=CC(=O)CC[C@]2(C)[C@H]2CC[C@@]3(C)[C@@H](CC[C@@]34CCC(=O)O4)[C@H]12 [SPIRONOLACTONE] | inducer [+] | –
